Reference: PMC10616469, “Pharmacokinetics and tissue distribution of four major bioactive components of Cynanchum auriculatum extract: a UPLC–MS/MS study in normal and functional dyspepsia rats” (Frontiers in Pharmacology, 2023)
Where two headings read alike, the source gives them in different places.

Key:
[1] = Stability of the four compounds in tissue homogenate samples (QC samples); details: mean ± s, n = 5
Method: (§1) Additionally, stomach and small intestinal tissues were diluted three times to obtain a tissue homogenate. Then, 300 μL of this tissue homogenate was mixed with 30 μL 1% formic acid-water, 20 μL IS, and 1.2 mL acetonitrile. The mixture was then vortexed for 5 min, sonicated for 10 min, and then stored at −20°C for 30 min. Subsequently, the mixture was centrifuged at 14,000 rpm for 10 min. The supernatant obtained was then transferred to another tube and evaporated to dryness at 37°C under nitrogen. The dried residue was reconstituted with 200 μL of the 50% methanol–water, and the centrifugation process was repeated. The obtained supernatant was then used for further analysis.
The appropriate amount of the reference substance was accurately weighed and dissolved in an appropriate amount of methanol to obtain stock solutions. The concentrations of the resulting stock solution were 0.9996 mg/mL for baishouwu benzophenone, 0.9518 mg/mL for deacylmetaplexigenin, 1.3660 mg/mL for qingyangshengenin, and 0.9898 mg/mL for syringic acid. Accurate volumes of each stock solution were mixed to obtain working solution, which was then serially diluted with methanol to provide standard working solutions. Similarly, QC samples of three concentrations (low, medium, and high) were prepared. All solutions were stored at −20°C for later use.
The following parameters of stability were assessed: short–term stability (24 h at room temperature), processed sample stability (24 h at 4°C), freeze–thaw stability (3 cycles), and auto–sampler stability (6 h at room temperature). QC samples of different concentrations were used for stability analysis.

[2] = Tissue distribution study after oral administration of CA extract in normal and FD rats; details: distribution found in rat brain
Method: (§2) UPLC–MS/MS analysis was conducted using the ACQUITY UPLC system (Waters Corp., Milford, MA, United States) equipped with a Xevo–TQ mass spectrometer (Waters Corp., Milford, MA, United States) with an electrospray ionization (ESI) interface and triple quadrupole mass analyzer.
(§3) The ACQUITY UPLC® BEH C18 column (2.1 mm × 50 mm, 1.7 μm, Waters, United States) was used for separation and was maintained at 40°C. The mobile phase consisted of 0.1% formic acid in water (A) and 0.1% formic acid–acetonitrile (B) for PK study and 0.2% formic acid in water (A) and 0.2% formic acid–acetonitrile (B) for tissue distribution study. The mobile phase was eluted as a gradient, as follows: 0–0.5 min, 10% B; 0.5–3.0 min, 15% B; 3.0–3.2 min, 25% B; 3.2–4.0 min, 30% B; 4.0–4.5 min, 32% B; 4.5–6.0 min, 90% B; and 6.0 min, 10% B. The flow rate was set at 0.35 mL/min and the injection volume was 2 μL for the PK study and 1 μL for the tissue distribution study.
(§4) The four active components of CA were quantified using multiple reaction monitoring under negative ion mode. The following m/z transitions were chosen for quantification: baishouwu benzophenone 301.00→283.00, deacylmetaplexigenin 379.15→361.20, qingyangshengenin 499.20→137.00, syringic acid 197.20→181.95, and puerarin (internal standard, IS) 415.10→267.05. The collision energy was 15, 15, 35, 15, and 35 V, respectively ([Sun et al., 2022]). ESI mode was operated under the following conditions: capillary voltage, 1 kV; desolvation gas (N2), 1000 L/h; collision gas (Ar2), 150 L/h; desolvation temperature, 400°C; and source temperature, 120°C.
as §1
(§5) SD rats were randomly divided into normal and FD groups (n = 30 each) and orally administered 10 mL/kg of CA extract solution. The rats were sacrificed at 10, 30 min, 1, 2, and 4 h after administration (6 rats per time point). Subsequently, their heart, liver, spleen, lung, kidney, brain, small intestine, and stomach were removed. The tissue samples were then washed in saline solution and wiped with filter paper. Subsequently, all tissues were stored at −80°C until analysis.

[3] = Stability of the four compounds in plasma samples (QC samples); details: n = 5
Method: In a 1.5 mL EP tube, 100 μL of plasma sample was mixed with 10 µL 1% formic acid–water, 10 μL IS (0.2011 μg/mL), and 400 μL acetonitrile. The mixture was then vortexed for 5 min, followed by sonication for 10 min at 40 kHz and centrifugation at 14,000 rpm for 10 min. The supernatant obtained was transferred to another tube and evaporated to dryness under a nitrogen vacuum at 37°C. The residue obtained was reconstituted with 150 μL of the initial mobile phase, and the centrifugation process was repeated. The supernatant thus obtained was then used for further analysis.
Similarly, QC samples of three concentrations (low, medium, and high) were prepared.
The specificity of the method was evaluated by comparing the retention times of analytes and IS in the blank matrix, blank matrix spiked with the four analytes and IS, and the samples after oral administration of CA extract. Calibration curves were constructed by comparing the ratio of peak areas of the four analytes to that of IS versus the concentration of the four analytes. Calibration curves were fitted via linear weighted (1/X ^ 2 ) least–squares regression. The intra–and inter–day precision and accuracy were estimated by analyzing QC samples at different concentrations on the same day and three consecutive validation days, respectively. The extraction recovery was evaluated by determining the peak area of analytes in QC samples compared with that in extracted matrix samples. The relative standard deviation of the extraction recovery of analytes at each level was retained at ≤20.0%. The following parameters of stability were assessed: short–term stability (24 h at room temperature), processed sample stability (24 h at 4°C), freeze–thaw stability (3 cycles), and auto–sampler stability (6 h at room temperature). QC samples of different concentrations were used for stability analysis.

[4] = PK study: plasma pharmacokinetics after oral administration of CA extract in normal and FD rats (UPLC-MS/MS); format: in vivo; details: Sprague-Dawley, rat; for AUC(0-inf) / AUC(0-t) / CL/F / Cmax / half-life: n = 6; for Vd/F: n = 6, read-out: Vz/F
Method: For PK experiments, an appropriate amount of the CA extract was weighed to prepare a 0.10 g/mL solution using physiological saline. Briefly, 12 SD rats were randomly assigned to normal and FD groups and were orally administered the prepared CA sample (10 mL/kg body weight). For assessment, 0.3 mL of blood was collected into heparinized tubes via the caudal vein before dosing and at 2, 5, 10, 15, 20, 30, and 45 min, and 1, 2, 4, 8, 12, 24, and 48 h after administration. Blood samples were then immediately centrifuged at 4,500 rpm for 15 min, and the obtained plasma samples were stored at −20°C until determination.
The PK parameters were analyzed using the non–compartment analysis using the WinNonLin 8.2 software (Phoenix, United States). All the data were expressed as mean ± standard deviation (SD). The normal and FD groups were compared using independent samples t–test in SPSS 22.0. Results with p values < 0.05 were considered statistically significant.

[5] = rat, in vivo
Method: as §2, §3, §4, §1, §5

[6] = Brain homogenate, highest QC (ng·mL^-1): Baishouwu benzophenone 131.10, Syringic acid 320.04, Qingyangshengenin 62.12, Deacylmetaplexigenin 677.19
[7] = Brain homogenate, lowest QC (ng·mL^-1): Baishouwu benzophenone 3.34, Syringic acid 8.18, Qingyangshengenin 1.58, Deacylmetaplexigenin 17.26
[8] = Brain homogenate, middle QC (ng·mL^-1): Baishouwu benzophenone 20.88, Syringic acid 51.14, Qingyangshengenin 9.90, Deacylmetaplexigenin 107.87
[9] = Heart homogenate, highest QC (ng·mL^-1): Baishouwu benzophenone 111.56, Syringic acid 340.93, Qingyangshengenin 350.76, Deacylmetaplexigenin 1522.88
[10] = Heart homogenate, lowest QC (ng·mL^-1): Baishouwu benzophenone 2.66, Syringic acid 8.11, Qingyangshengenin 8.35, Deacylmetaplexigenin 36.24
[11] = Heart homogenate, middle QC (ng·mL^-1): Baishouwu benzophenone 18.96, Syringic acid 57.96, Qingyangshengenin 59.63, Deacylmetaplexigenin 258.89
[12] = Kidney homogenate, highest QC (ng·mL^-1): Baishouwu benzophenone 768.40, Syringic acid 1230.44, Qingyangshengenin 844.98, Deacylmetaplexigenin 2249.71
[13] = Kidney homogenate, lowest QC (ng·mL^-1): Baishouwu benzophenone 9.84, Syringic acid 15.75, Qingyangshengenin 10.82, Deacylmetaplexigenin 28.80
[14] = Kidney homogenate, middle QC (ng·mL^-1): Baishouwu benzophenone 81.96, Syringic acid 131.25, Qingyangshengenin 90.13, Deacylmetaplexigenin 239.97
[15] = Liver homogenate, highest QC (ng·mL^-1): Baishouwu benzophenone 313.75, Syringic acid 268.07, Qingyangshengenin 4484.13, Deacylmetaplexigenin 3093.35
[16] = Liver homogenate, lowest QC (ng·mL^-1): Baishouwu benzophenone 1.77, Syringic acid 22.34, Qingyangshengenin 25.26, Deacylmetaplexigenin 16.38
[17] = Liver homogenate, middle QC (ng·mL^-1): Baishouwu benzophenone 27.19, Syringic acid 89.35, Qingyangshengenin 386.62, Deacylmetaplexigenin 268.09
[18] = Lung homogenate, highest QC (ng·mL^-1): Baishouwu benzophenone 630.29, Syringic acid 662.80, Qingyangshengenin 385.86, Deacylmetaplexigenin 1513.71
[19] = Lung homogenate, lowest QC (ng·mL^-1): Baishouwu benzophenone 17.66, Syringic acid 18.57, Qingyangshengenin 10.81, Deacylmetaplexigenin 42.42
[20] = Lung homogenate, middle QC (ng·mL^-1): Baishouwu benzophenone 105.98, Syringic acid 111.44, Qingyangshengenin 64.88, Deacylmetaplexigenin 254.52
[21] = Small intestine homogenate, highest QC (ng·mL^-1): Baishouwu benzophenone 39.22, Syringic acid 773.28, Qingyangshengenin 1726.39, Deacylmetaplexigenin 1206.41
[22] = Small intestine homogenate, lowest QC (ng·mL^-1): Baishouwu benzophenone 0.46, Syringic acid 9.31, Qingyangshengenin 20.77, Deacylmetaplexigenin 14.52
[23] = Small intestine homogenate, middle QC (ng·mL^-1): Baishouwu benzophenone 4.97, Syringic acid 97.95, Qingyangshengenin 218.68, Deacylmetaplexigenin 152.81
[24] = Spleen homogenate, highest QC (ng·mL^-1): Baishouwu benzophenone 658.88, Syringic acid 752.66, Qingyangshengenin 418.52, Deacylmetaplexigenin 1979.74
[25] = Spleen homogenate, lowest QC (ng·mL^-1): Baishouwu benzophenone 10.98, Syringic acid 12.54, Qingyangshengenin 6.98, Deacylmetaplexigenin 33.00
[26] = Spleen homogenate, middle QC (ng·mL^-1): Baishouwu benzophenone 87.85, Syringic acid 100.35, Qingyangshengenin 55.80, Deacylmetaplexigenin 263.97
[27] = Stomach homogenate, highest QC (ng·mL^-1): Baishouwu benzophenone 47.06, Syringic acid 257.76, Qingyangshengenin 1285.45, Deacylmetaplexigenin 1665.65
[28] = Stomach homogenate, lowest QC (ng·mL^-1): Baishouwu benzophenone 0.63, Syringic acid 3.44, Qingyangshengenin 17.14, Deacylmetaplexigenin 22.21
[29] = Stomach homogenate, middle QC (ng·mL^-1): Baishouwu benzophenone 6.28, Syringic acid 34.37, Qingyangshengenin 171.39, Deacylmetaplexigenin 222.09
[30] = high QC (nominal 1666.00 / 3172.53 / 569.17 / 206.21 ng·mL^-1)
[31] = low QC (nominal 52.06 / 49.57 / 8.89 / 1.61 ng·mL^-1)
[32] = medium QC (nominal 208.25 / 396.57 / 71.13 / 25.78 ng·mL^-1)
[33] = FD group rats, oral CA extract (0.10 g/mL solution, 10 mL/kg)
[34] = Normal group rats, oral CA extract (0.10 g/mL solution, 10 mL/kg)

CC(=O)C1(O)CCC2(O)C3(O)CC=C4CC(O)CCC4(C)C3CC(O)C12C (stereo not shown) [Deacylmetaplexigenin]
Auto-sampler for 6 h Measured concentration [1, 6]: 639.39 ± 12.53 ng/mL | Three freeze-thaw cycles Measured concentration [1, 6]: 657.30 ± 18.60 ng/mL | Auto-sampler for 6 h Measured concentration [1, 7]: 16.37 ± 0.20 ng/mL | Three freeze-thaw cycles Measured concentration [1, 7]: 16.11 ± 0.43 ng/mL | Auto-sampler for 6 h Measured concentration [1, 8]: 106.81 ± 0.35 ng/mL | Three freeze-thaw cycles Measured concentration [1, 8]: 107.57 ± 1.64 ng/mL | Auto-sampler for 6 h Measured concentration [1, 9]: 1545.69 ± 28.28 ng/mL | Three freeze-thaw cycles Measured concentration [1, 9]: 1530.72 ± 31.74 ng/mL | Auto-sampler for 6 h Measured concentration [1, 10]: 29.91 ± 0.63 ng/mL | Three freeze-thaw cycles Measured concentration [1, 10]: 30.14 ± 0.33 ng/mL | Auto-sampler for 6 h Measured concentration [1, 11]: 253.92 ± 7.65 ng/mL | Three freeze-thaw cycles Measured concentration [1, 11]: 251.51 ± 4.47 ng/mL | Auto-sampler for 6 h Measured concentration [1, 12]: 2268.44 ± 53.12 ng/mL | Three freeze-thaw cycles Measured concentration [1, 12]: 2270.72 ± 48.43 ng/mL | Auto-sampler for 6 h Measured concentration [1, 13]: 30.96 ± 0.89 ng/mL | Three freeze-thaw cycles Measured concentration [1, 13]: 30.51 ± 1.21 ng/mL | Auto-sampler for 6 h Measured concentration [1, 14]: 267.87 ± 13.29 ng/mL | Three freeze-thaw cycles Measured concentration [1, 14]: 266.54 ± 9.78 ng/mL | Auto-sampler for 6 h Measured concentration [1, 15]: 3350.30 ± 128.16 ng/mL | Three freeze-thaw cycles Measured concentration [1, 15]: 3302.83 ± 129.48 ng/mL | Auto-sampler for 6 h Measured concentration [1, 16]: 15.66 ± 0.68 ng/mL | Three freeze-thaw cycles Measured concentration [1, 16]: 15.51 ± 0.68 ng/mL | Auto-sampler for 6 h Measured concentration [1, 17]: 249.04 ± 7.02 ng/mL | Three freeze-thaw cycles Measured concentration [1, 17]: 245.11 ± 4.40 ng/mL | Auto-sampler for 6 h Measured concentration [1, 18]: 1544.16 ± 36.02 ng/mL | Three freeze-thaw cycles Measured concentration [1, 18]: 1549.77 ± 41.79 ng/mL | Auto-sampler for 6 h Measured concentration [1, 19]: 38.33 ± 2.37 ng/mL | Three freeze-thaw cycles Measured concentration [1, 19]: 37.62 ± 2.38 ng/mL | Auto-sampler for 6 h Measured concentration [1, 20]: 243.55 ± 12.09 ng/mL | Three freeze-thaw cycles Measured concentration [1, 20]: 240.11 ± 10.98 ng/mL | Auto-sampler for 6 h Measured concentration [1, 21]: 1293.63 ± 65.40 ng/mL | Three freeze-thaw cycles Measured concentration [1, 21]: 1296.24 ± 110.99 ng/mL | Auto-sampler for 6 h Measured concentration [1, 22]: 12.77 ± 1.27 ng/mL | Three freeze-thaw cycles Measured concentration [1, 22]: 12.39 ± 1.33 ng/mL | Auto-sampler for 6 h Measured concentration [1, 23]: 150.09 ± 2.73 ng/mL | Three freeze-thaw cycles Measured concentration [1, 23]: 154.01 ± 1.23 ng/mL | Auto-sampler for 6 h Measured concentration [1, 24]: 1990.73 ± 48.18 ng/mL | Three freeze-thaw cycles Measured concentration [1, 24]: 1950.06 ± 62.22 ng/mL | Auto-sampler for 6 h Measured concentration [1, 25]: 31.95 ± 1.48 ng/mL | Three freeze-thaw cycles Measured concentration [1, 25]: 32.15 ± 1.58 ng/mL | Auto-sampler for 6 h Measured concentration [1, 26]: 232.19 ± 3.53 ng/mL | Three freeze-thaw cycles Measured concentration [1, 26]: 247.56 ± 6.23 ng/mL | Auto-sampler for 6 h Measured concentration [1, 27]: 1622.87 ± 76.11 ng/mL | Three freeze-thaw cycles Measured concentration [1, 27]: 1662.82 ± 50.13 ng/mL | Auto-sampler for 6 h Measured concentration [1, 28]: 21.14 ± 1.50 ng/mL | Three freeze-thaw cycles Measured concentration [1, 28]: 21.58 ± 1.95 ng/mL | Auto-sampler for 6 h Measured concentration [1, 29]: 244.68 ± 7.59 ng/mL | Three freeze-thaw cycles Measured concentration [1, 29]: 245.34 ± 9.19 ng/mL | crossing of the blood-brain barrier [2]: could cross the blood-brain barrier | Measured concentration, 4°C for 24 h [3, 30]: 3164.75 ± 84.97 ng/mL | Measured concentration, Three freeze-thaw cycles [3, 30]: 3053.63 ± 57.47 ng/mL | Measured concentration, 4°C for 24 h [3, 31]: 52.01 ± 2.68 ng/mL | Measured concentration, Three freeze-thaw cycles [3, 31]: 53.08 ± 3.47 ng/mL | Measured concentration, 4°C for 24 h [3, 32]: 406.61 ± 10.59 ng/mL | Measured concentration, Three freeze-thaw cycles [3, 32]: 352.32 ± 6.40 ng/mL | Tmax ([4]; 1 g/kg, oral CA extract, normal and FD rats, read-out: time of peak concentration (Tmax)): 20 to 30 min | AUC(0-inf) [4, 33]: 13900 ng·h/mL | AUC(0-t) [4, 33]: 13300 ng·h/mL | CL/F [4, 33]: 16.5 mL/min/kg | Cmax [4, 33]: 4510 ± 241 ng/mL | half-life [4, 33]: 772 ± 454 min | Tmax ([4]; FD group rats, oral CA extract (0.10 g/mL solution, 10 mL/kg), n = 6, read-out: Tmax): 19.8 ± 4.8 min | Vd/F [4, 33]: 18.1 ± 10.6 L/kg | AUC(0-inf) [4, 34]: 12300 ng·h/mL | AUC(0-t) [4, 34]: 11600 ng·h/mL | CL/F [4, 34]: 19.2 mL/min/kg | Cmax [4, 34]: 4680 ± 499 ng/mL | half-life [4, 34]: 602 ± 190 min | Tmax ([4]; Normal group rats, oral CA extract (0.10 g/mL solution, 10 mL/kg), n = 6, read-out: Tmax): 25.2 ± 6.6 min | Vd/F [4, 34]: 16 ± 3.79 L/kg | time after oral administration at which almost completely metabolized in tissues ([5]; Sprague-Dawley): 4 h | time of peak in most of organ tissues ([5]; Sprague-Dawley, po): 0.17 to 0.5 h | tissue with the highest concentration ([5]; po): stomach and small intestine
